Data set [1] relates to LL/2 tumours and lung metastases. Put plainly: syngeneic Lewis Lung Carcinoma (LL/2) tumour growth and spontaneous metastasis model. In kind it is in vivo, mice. On the procedure:
(§1) In the orthotopic Hep3b2.1-7 human liver cancer model, treatment of mice (n=10) began 14 days after inoculation of 2.5 × 10^6 cells. […] To initiate tumour xenografts, MDA-MB-231, PC3, Cal27 and HepG2 cells were injected s.c. into nude mice (n=8) at 4, 5, 2 and 2 × 10^7 cells ml^−1, respectively. […] In the B16F0 lung metastasis model, 2 × 10^5 cells were injected via the tail vein of C57Bl6 mice (n=8). […] Surface lung macrometastases were counted for each group (n=9) upon study termination. In the intrasplenic HT-29 xenograft model, 1 × 10^6 cells in 100 μl were injected into the spleen. […] Solid tumours were measured in two dimensions (length and width) and the tumour volume (cm^3) was calculated using the equation: V=length × width^2 × π/6. The anti-tumour activity was expressed as percent tumour growth inhibition (%TGI). Further details are available in Supplementary Methods. […]
efficacy/PK study) using either a once or twice weekly dosing schedule (see figure legends for dose schedules in each study) for up to three weeks. […]
In the LL/2 mouse model, treatment of mice commenced on the day of inoculation (Day 0). Mice inoculated subcutaneously were treated with either Vehicle Control […]
once weekly or Sorafenib (60mg/kg, once daily, p.o.). The treatments were continued for three weeks. The lungs were excised from all mice at the time of culling for metastasis […]
count determination. […]
In relevant models, solid tumours were measured in two dimensions (length and width) and the tumour volume (mm3) calculated using the equation V = length × width2 × π/6.The anti-tumour activity was assessed by the comparison of the mean tumour volume of the treated groups to the mean tumour volume of the control group and expressed as the percent Tumour Growth Inhibition (TGI) using the equation:
%TGI = (1-((VendPG545 - VstartPG545) / (VendControl - VstartControl)))*100 VendPG545 = Ending Tumour Volume of PG545-treated animal
VstartPG545 = Starting Tumour Volume of PG545-treated animal
VendControl = Ending Tumour Volume of Control animal
VstartControl = Starting Tumour Volume of Control animal […]
After collection, 0.2 mL of […]
whole blood was added to a glass scintillation vial to which 1 mL Solvable was added.
Samples were incubated for one hour at 55-60°C. 0.1 mL of 0.1 M EDTA-di-sodium salt solution and 0.3 mL to 0.5 mL of 30% hydrogen peroxide in 0.1 mL aliquots were added to the sample. Samples were gently agitated between additions to allow reaction foaming to subside. Samples were incubated for 30 minutes at room temperature. Vials were capped tightly and incubated again at 55 – 60 °C fo r 1 hour. Samples were cooled to room temperature and 15 mL of ULTIMA Gold added.
For tumour samples, 100 mg of tissue was placed in a 20 mL glass scintillation vial and 2 mL of Solvable added. The samples were incubated at 50 - 60 °C for 1 hour with occasional swirling. Samples were cooled to room temperature and for tumours, 0.3 mL of 30% hydrogen peroxide in three aliquots of 0.1 mL were added. The samples were again incubated at 50 - 60 °C for 1 hour with occasional swirling. Tumours samples were […]

A further data set relates to HepG2 cells. Put plainly: in vitro cytotoxicity (LC50). Type of data set: cell-based. As to conditions: read-out: LC50 (concentration lethal to 50% of cells).
The nature of data set [2]: toxicity / toxicology studies. In kind it is in vivo.
The test system of data set [3] is HT-29 tumours and metastases. Put plainly: intrasplenic HT-29 colon xenograft spontaneous metastasis model. In kind it is in vivo, mice. The protocol: as §1
once weekly or Sorafenib (60mg/kg, once daily, p.o.). The treatments were continued for three weeks. The lungs were excised from all mice at the time of culling for metastasis count determination. Surface lung macrometastases were counted for each group upon […]
In the HT-29 model, the lumbar region skin was sterilized with 5% tincture and 75% ethanol, respectively. One-cm-long incision was made to expose the spleen before 1×10^6 cells in 100 µL was injected into the spleen. […]
mg/kg) was administered to mice (n=12) each week (qw) over 8 weeks and surface liver and colon metastatic nodules were counted for each group (n=12) upon study termination. Spleen and liver weights were also measured as indirect assessment of […]
In relevant models, solid tumours were measured in two dimensions (length and width) and the tumour volume (mm3) calculated using the equation V = length × width2 × π/6.The anti-tumour activity was assessed by the comparison of the mean tumour volume of the treated groups to the mean tumour volume of the control group and expressed as the percent Tumour Growth Inhibition (TGI) using the equation: […]

The next data set deals with coagulation. More on the design: method as in Dredge et al, 2010. As to conditions: compared with PI-88 or earlier PG500 series compounds; ref Dredge et al, 2010; cited from earlier work.
Where [4] appears, read: qw, 20 mg kg^−1, after 8th week of administration.

Some results are limits rather than exact numbers.

Data on 1 compound can be found in article PMC3049593 (British Journal of Cancer, 2011).

In the case of `CC(C)CCC[C@@H](C)[C@H]1CCC2C3CCC4C[C@@H](O[C@@H]5O[C@H](COS(=O)(=O)[O-])[C@@H](O[C@H]6O[C@H](COS(=O)(=O)[O-])[C@@H](O[C@H]7O[C@H](COS(=O)(=O)[O-])[C@@H](O[C@H]8O[C@H](COS(=O)(=O)[O-])[C@@H](OS(=O)(=O)[O-])[C@H](OS(=O)(=O)[O-])[C@H]8OS(=O)(=O)[O-])[C@H](OS(=O)(=O)[O-])[C@H]7OS(=O)(=O)[O-])[C@H](OS(=O)(=O)[O-])[C@H]6OS(=O)(=O)[O-])[C@H](OS(=O)(=O)[O-])[C@H]5OS(=O)(=O)[O-])CC[C@]4(C)C3CC[C@@]21C.[Na+].[Na+].[Na+].[Na+].[Na+].[Na+].[Na+].[Na+].[Na+].[Na+].[Na+].[Na+].[Na+]` (some centres unmarked) [PG545], in data set [1] (20 mg kg^−1 once-weekly), the “TGI (primary tumour)” value was 46% and the “TGI / inhibition (lung metastases)” value stood at 96%. For the same compound, in data set [1] (20 mg kg^−1 single dose), the “TGI (lung metastases)” value came out at 67% and the “TGI (primary tumour)” value amounted to 15%. In data set [1] (40 mg kg^−1 once-weekly), the “TGI (lung metastases)” value is 67% and the “TGI (primary tumour)” value is 57%. In addition, the “TGI (primary tumour)” value in data set [1] (40 mg kg^−1 single dose) turned out to be 33%. Further, in the data set with HepG2 cells, the CC50 is more than 100 µM. Moreover, in data set [2] (high doses, toxicology studies, reversible (data not shown)), the “activated partial thromboplastin time” value was “increased activated partial thromboplastin time”. In data set [2] (toxicity studies (data not shown)), the “body weight loss in other species” value is recorded as “did not lead to significant body weight loss”. For the same compound, the primary tumour growth result in data set [3] (20 mg kg^−1 qw over 8 weeks) was “significantly reduced primary tumour growth”. In data set [3] (setting [4]), the “TGI (colon metastases)” value is recorded as 93% and the “TGI (liver metastases)” value worked out at 100%. Also, in the data set on coagulation, the anti-coagulant properties entry is recorded as “mild anti-coagulant properties”.
